Data from US8263773B2, “Thieno [2,3-b] pyridine compounds with mGluR activity” (Richter Gedeon Nyrt., priority 2008, dated 2012).

Key:
male Wistar rats = assay: Anxiolytic activity in the punished drinking test (Vogel); format: in vivo, rat; settings: for Punished drinking, MED: oral, 60 min before test, MED = dose increasing accepted shocks above 35, male Wistar rats; for anxiolytic activity after oral administration: statement in words
Excerpt: Measurement of Anxiolytic Activity in the Punished Drinking Test
The method described by Vogel et al. (Psychopharmacology (Berl.) 1971, 21:1-7) was used with modifications. On the day preceding the test day male Wistar rats (180-220 g) were placed into the test chambers which were equipped with a metal water spout mounted on the wall of the chamber and a metal grid floor for delivering electric shocks. During a 5-min adaptation period the animals had free access to the drinking spout. Following the adaptation session rats were deprived of drinking water for 24 hours prior to the test. On the day of the measurement, the animals were orally treated with the test compounds and 60 minutes later were placed into the test chambers where they had access to the drinking water. In the test session drinking was punished by delivering electric shocks (1 mA, 1 sec) through the drinking spout following every 10 licks during a 270 second punishment period. Number of licks and shocks delivered were recorded and stored in a computer. Anxiolytic activity is reflected by the increased number of accepted shocks. Minimum effective doses (MED, defined as the dose which increased the number of accepted shocks above 35) were determined and used to characterize the anxiolytic potency of the tested compounds.

human mGluR5a receptor = biological target: T1, human mGluR5a receptor (Homo sapiens, UniProt P41594); assay: human mGluR5a receptor binding ([3H]-M-MPEP, A18 cell line expressing hmGluR5a); settings: for Ki: A18 cell line expressing hmGluR5a, [3H]-M-MPEP 2 nM; for binding affinity to human mGlu5 receptors: statement in words
T1 construct: host or cells: A18 cell line
T1 sequence (P41594 21-1180 isoform P41594-2 limits assumed): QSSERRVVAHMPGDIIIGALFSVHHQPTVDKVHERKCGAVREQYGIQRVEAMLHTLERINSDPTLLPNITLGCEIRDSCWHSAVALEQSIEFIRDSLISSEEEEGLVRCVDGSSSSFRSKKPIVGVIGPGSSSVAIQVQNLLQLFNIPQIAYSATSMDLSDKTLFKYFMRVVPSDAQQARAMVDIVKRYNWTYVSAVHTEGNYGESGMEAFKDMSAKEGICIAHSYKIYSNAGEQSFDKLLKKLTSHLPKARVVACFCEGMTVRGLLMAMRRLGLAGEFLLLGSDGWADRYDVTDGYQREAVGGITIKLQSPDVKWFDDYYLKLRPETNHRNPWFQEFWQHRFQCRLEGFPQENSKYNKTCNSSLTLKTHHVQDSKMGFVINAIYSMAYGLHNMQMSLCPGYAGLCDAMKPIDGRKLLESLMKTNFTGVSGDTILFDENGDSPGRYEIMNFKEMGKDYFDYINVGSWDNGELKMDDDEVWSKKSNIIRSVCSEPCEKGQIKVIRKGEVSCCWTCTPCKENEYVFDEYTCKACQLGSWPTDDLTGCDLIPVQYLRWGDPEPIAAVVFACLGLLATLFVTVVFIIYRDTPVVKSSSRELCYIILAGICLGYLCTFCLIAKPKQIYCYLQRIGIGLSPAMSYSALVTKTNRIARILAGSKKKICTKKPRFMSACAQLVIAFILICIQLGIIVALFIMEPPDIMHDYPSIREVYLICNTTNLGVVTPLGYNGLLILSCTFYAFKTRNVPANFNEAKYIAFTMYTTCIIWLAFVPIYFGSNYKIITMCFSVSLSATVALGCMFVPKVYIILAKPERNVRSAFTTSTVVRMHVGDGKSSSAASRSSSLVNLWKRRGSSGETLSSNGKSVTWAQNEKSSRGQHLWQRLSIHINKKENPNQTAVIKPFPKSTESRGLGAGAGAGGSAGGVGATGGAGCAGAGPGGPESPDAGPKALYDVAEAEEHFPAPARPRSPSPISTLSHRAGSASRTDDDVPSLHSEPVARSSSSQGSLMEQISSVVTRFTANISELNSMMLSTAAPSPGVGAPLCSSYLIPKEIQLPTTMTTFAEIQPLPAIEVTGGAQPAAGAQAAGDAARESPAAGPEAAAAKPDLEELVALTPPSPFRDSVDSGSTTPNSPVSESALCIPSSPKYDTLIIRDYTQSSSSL
Method: (§1) MGluR5 Receptor Binding Tests
(§2) MGluR5 receptor binding was determined according to Gasparini et al. (Bioorg. Med. Chem. Lett. 2000, 12:407-409) with modifications. Rat cerebro-cortical membrane preparation was used to determine the binding characteristics of reference compounds and novel compounds to the rat mGluR5. The A18 cell line expressing hmGluR5a (purchased from Euroscreen) was used to determine binding characteristics of the chemical compounds to the human mGluR5a receptor. [3H]-M-MPEP (2 nM) was used as a radioligand. The nonspecific binding was determined in the presence of 10 μM M-MPEP.

rat mGluR5 = biological target: T2, rat mGluR5 (Rattus norvegicus, UniProt P31424); assay: rat mGluR5 receptor binding ([3H]-M-MPEP, rat cerebro-cortical membranes); settings: for Ki: rat cerebro-cortical membranes, [3H]-M-MPEP 2 nM; for binding affinity to rat mGlu5 receptors: statement in words
T2 construct: Rat cerebro-cortical membrane preparation was used; from tissue; host or cells: rat cerebral cortex membranes
T2 sequence (P31424 21-1203): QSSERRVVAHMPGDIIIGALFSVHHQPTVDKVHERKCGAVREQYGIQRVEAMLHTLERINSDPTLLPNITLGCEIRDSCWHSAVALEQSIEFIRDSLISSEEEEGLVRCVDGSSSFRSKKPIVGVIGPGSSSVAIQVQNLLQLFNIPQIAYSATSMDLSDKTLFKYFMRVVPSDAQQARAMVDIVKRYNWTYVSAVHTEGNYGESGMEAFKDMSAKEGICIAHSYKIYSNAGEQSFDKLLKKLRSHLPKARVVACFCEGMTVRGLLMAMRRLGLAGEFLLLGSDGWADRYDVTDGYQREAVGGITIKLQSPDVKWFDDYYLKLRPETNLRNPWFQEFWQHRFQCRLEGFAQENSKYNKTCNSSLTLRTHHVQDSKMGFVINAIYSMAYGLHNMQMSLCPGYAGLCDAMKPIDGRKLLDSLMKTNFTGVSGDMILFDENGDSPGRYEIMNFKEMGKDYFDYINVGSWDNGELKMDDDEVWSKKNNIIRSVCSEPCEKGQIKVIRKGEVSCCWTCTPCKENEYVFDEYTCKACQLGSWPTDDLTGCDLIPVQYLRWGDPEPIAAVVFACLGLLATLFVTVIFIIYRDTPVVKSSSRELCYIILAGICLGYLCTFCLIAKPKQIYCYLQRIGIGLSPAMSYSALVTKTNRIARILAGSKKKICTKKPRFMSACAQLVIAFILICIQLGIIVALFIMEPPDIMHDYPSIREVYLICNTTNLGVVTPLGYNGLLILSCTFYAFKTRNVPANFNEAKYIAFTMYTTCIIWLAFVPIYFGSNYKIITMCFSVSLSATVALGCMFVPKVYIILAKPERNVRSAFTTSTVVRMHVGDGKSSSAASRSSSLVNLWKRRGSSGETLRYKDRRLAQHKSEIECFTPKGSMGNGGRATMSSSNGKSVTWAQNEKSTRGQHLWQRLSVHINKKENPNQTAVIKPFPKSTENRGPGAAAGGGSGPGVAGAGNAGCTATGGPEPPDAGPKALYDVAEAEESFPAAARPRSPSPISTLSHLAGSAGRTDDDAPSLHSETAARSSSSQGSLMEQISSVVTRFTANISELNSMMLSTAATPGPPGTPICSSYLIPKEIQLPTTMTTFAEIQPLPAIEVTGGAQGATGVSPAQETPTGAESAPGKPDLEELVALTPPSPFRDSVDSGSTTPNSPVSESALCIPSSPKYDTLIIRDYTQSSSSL
Method: as §1, §2

Row | Structure (SMILES) | Punished drinking, MED (male Wistar rats) | anxiolytic activity after oral administration (male Wistar rats) | Ki (human mGluR5a receptor) | binding affinity to human mGlu5 receptors (human mGluR5a receptor) | Ki (rat mGluR5) | binding affinity to rat mGlu5 receptors (rat mGluR5)
1 | N#Cc1cc(F)cc(S(=O)(=O)c2sc3ncc(N)cc3c2-c2cccc(F)c2)c1 [Compound 1, 5-Amino-2-(3-cyano-5-fluoro-benzenesulfonyl)-3-(3-fluorophenyl)-thieno[2,3-b]-pyridine] | 3 mg/kg | remarkable anxiolytic activity | 3.2 nM | high affinity | 1.9 nM | high affinity
2 | N#Cc1cc(F)cc(S(=O)(=O)c2sc3ncc(N)cc3c2-c2cccc(Cl)c2)c1 [Compound 2, 5-Amino-2-(3-cyano-5-fluoro-benzenesulfonyl)-3-(3-chlorophenyl)-thieno[2,3-b]-pyridine] | 5 mg/kg | remarkable anxiolytic activity | 8.7 nM | high affinity | 7.2 nM | high affinity
